{"source": "paper PMC8512853", "about": "“Synthesis, Bioactivity, Pharmacokinetic and Biomimetic Properties of Multi-Substituted Coumarin Derivatives” (Molecules, 2021)", "key": {"A375 cells": {"system": "A375 cells", "test": "MTT cytotoxicity assay, A375", "assay_type": "cell-based, human", "conditions": "Homo sapiens, A-375, 24 h, A375, 100 μΜ, read-out: Cell Toxicity A375 % (100 μΜ)"}, "A549 cells": {"system": "A549 cells", "test": "MTT cytotoxicity assay, A549", "assay_type": "cell-based, human", "conditions": "Homo sapiens; A549, 100 μΜ, 24 h; read-out: Cell Toxicity A549 % (100 μΜ)"}, "[1]": {"test": "IAM chromatography (IAM.PC.DD.2 column) and estimated human oral absorption", "assay_type": "in vitro ADME", "description": "The immobilized artificial membrane (IAM) chromatographic behavior of the 25 novel coumarin derivatives was studied. IAM stationary phases consisting of monolayers of phospholipids (e.g., phosphatidylcholine, PC) immobilized on a propylamine–silica support can simulate interactions of chemicals with cell membranes.\nUsing an IAM.PC.DD2 column (Regis Technologies) as the stationary phase with PBS as the mobile phase at pH = 7.40, and a flow rate of 3 mL/min in the presence of acetonitrile fractions (C%) of 10%, 15%, 20%, 25%, and 30%, a logkC% value was obtained via the retention time for each concentration of CH3CN. Retention factors were then used to plot logkC% as a function of acetonitrile fraction. The intercept of the linear regression corresponds to the logkw, corresponding to pure aqueous phase.\n(1) % HOA=100/1+10^−(2.17+0.88*logkw−0.006*MW−0.83*A−0.53*F^*++1.18*F^*−)\n(§1) The physicochemical and biomimetic properties of the new coumarin analogues were studied using liquid chromatography (HPLC) in 220–230 nm Two types of chromatographic columns were used: (i) immobilized artificial membrane (IAM) ([…].PC.DD.2, Regis Technologies) column and (ii) human serum albumin (HSA) (CHIRAL PAK) column.\n(§2) The training set consisted of 25 neutral and slightly acidic compounds. Their IAM retention factors were measured at pH 7.40 on a IAM.PC.DD.2 column. The mobile phase consisted of acetonitrile solvent (CH3CN) in various concentrations (10%, 15%, 20%, 25%, 30%) and a flow rate of 3 mL/min was selected. Their HSA retention factors were measured at pH 7.00 on HSA column. The mobile phase consisted of acetonitrile solvent (CH3CN) in 10% concentration and a flow rate of 1 mL/min was selected.\n(§3) The different pH values (7.00 for HSA and 7.40 for IAM) were measured with an electronic pH meter MP125 and were achieved by preparing suitable buffers of phosphates and chlorides (0.12 g KH2PO4, 0.72 g Na2HPO4·2H2O, 4.00 g NaCl and 0.10 g KCl). Sodium citrate solution was used to determine the dead time, which was deducted from the results at the end of measurements. The elution time of each coumarin analogue was measured at least three times. Retention times were converted into logk values, which represent the logarithm of the retention indexes, using Equation (8). (8) logk=log(tr−t0/t0) where tr is the retention time of the coumarin derivative and t0 is the dead time."}, "[2]": {"test": "Inhibition of AAPH induced linoleic acid oxidation (lipid peroxidation)", "conditions": "100 μΜ"}, "[3]": {"target": "T1, human serum albumin (HSA) (Homo sapiens, UniProt P02768)", "T1 construct": "purchased CHIRAL PAK", "T1 sequence (P02768 25-609)": "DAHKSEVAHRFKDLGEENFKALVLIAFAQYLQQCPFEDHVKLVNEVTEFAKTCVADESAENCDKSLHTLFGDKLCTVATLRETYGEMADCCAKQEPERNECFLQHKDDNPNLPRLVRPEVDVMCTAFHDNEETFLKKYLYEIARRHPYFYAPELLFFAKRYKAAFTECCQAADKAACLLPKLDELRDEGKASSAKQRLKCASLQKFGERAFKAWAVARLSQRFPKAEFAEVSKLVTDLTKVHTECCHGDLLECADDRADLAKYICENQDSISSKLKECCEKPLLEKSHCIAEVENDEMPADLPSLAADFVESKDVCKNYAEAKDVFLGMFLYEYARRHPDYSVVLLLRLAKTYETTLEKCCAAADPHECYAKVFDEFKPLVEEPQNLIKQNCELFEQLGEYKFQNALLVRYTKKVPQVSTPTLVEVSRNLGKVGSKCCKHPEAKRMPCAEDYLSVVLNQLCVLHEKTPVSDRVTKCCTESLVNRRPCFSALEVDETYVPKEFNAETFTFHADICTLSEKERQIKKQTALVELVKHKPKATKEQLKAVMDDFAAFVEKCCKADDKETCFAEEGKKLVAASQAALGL", "test": "HSA chromatography and estimated plasma protein binding", "assay_type": "in vitro ADME", "description": "The novel coumarin derivatives were also studied using the immobilized protein column HSA. An HSA chromatographic column provides estimates on the binding affinities of chemicals to human serum albumin, which is the most abundant plasma protein and is related to drug efficacy, drug—drug pharmacokinetic interactions, and drug safety. HSA binding can be considered to represent almost the total plasma protein binding of a drug.\nRetention factors on the HSA stationary phase were measured using as eluent PBS at pH = 7.00 and a flow rate of 1 mL/min in the presence of 10% acetonitrile.\n(2) % PPB=101∗10^logk10/1+10^logk10\nas §1, §2, §3"}}, "data": [{"molecule": "Cc1c(-c2ccc(O)cc2)c(=O)oc2ccc(Cl)cc12", "note": "[Compound 4j, 6-chloro-3-(4-hydroxyphenyl)-4-methyl-chromen-2-one]", "values": [{"measurement": "cytotoxicity at 100 µM", "setting": "A375 cells", "result": 11.9, "unit": "%"}, {"measurement": "cytotoxicity at 100 µM", "setting": "A549 cells", "result": 33.5, "unit": "%"}, {"measurement": "%HOA estimated human oral absorption", "setting": "[1]; Equation (1) from logkw and physicochemical properties", "result": 99.5, "unit": "%"}, {"measurement": "logkw (IAM retention factor)", "setting": "[1]; pH 7.40, IAM.PC.DD.2, intercept at pure aqueous phase", "result": 3.41}, {"measurement": "AAPH % inhibition (100 μΜ)", "setting": "[2]", "result": 36.1, "unit": "%"}, {"measurement": "fraction unbound", "setting": "[3]; human, immobilized human serum albumin (HSA) column, Equation (2) from logk10, pH 7.00, read-out: %PPB estimated plasma protein binding (converted)", "result": 0.196}, {"measurement": "logk10 (HSA retention factor)", "setting": "[3]; pH 7.00, 10% acetonitrile", "result": 0.59}]}]}
